Measured values taken from paper PMC8512147, “Multifunctional Small Molecules as Potential Anti-Alzheimer’s Disease Agents” (Molecules, 2021).
Where two headings read alike, the source gives them in different places. Values belong to the compound of their own block, whether it stands above or below them.

What was measured:
[1] = set-up: method as in PMID 25994066; conditions: DPPH method; read-out: Radical Scavenging Activity (EC50); cited from earlier work
[2] = Radical scavenging activity, DPPH method; assay type: biochemical; conditions: MeOH, 30 min, r.t., mean ± SD of 3 independent experiments
Excerpt: Commercial ferulic acid (FA) and all the newly synthesized compounds 1a–e were studied for their radical scavenging activity, following the protocol previously reported. The activity of each compound is expressed as EC50 and is related to its interaction with the free stable radical 2,2-diphenyl-1-picrylhydrazyl (DPPH•).
For the physicochemical and biological studies, analytical grade reagents and solvents were supplied by Sigma-Aldrich (St. Louis, MO, USA), Fluka (Buchs, Switzerland) and Acros (Geel, Belgium). They were used as received without any purification. The antioxidant activity assay was performed in a quartz cell of 1 cm path length with a Perkin-Elmer Lambda 35 UV–Vis spectrophotometer equipped with a temperature programmer PTP1+1 Peltier System (T = 25.0 ± 0.1 °C).
Compounds were evaluated for their radical scavenging activity by the Blois method using DPPH (2,2-diphenyl-1-picrylhydrazyl), a stable free-radical. It absorbs in methanol solution at 517–520 nm and it is a scavenger for other radicals converting itself in the reduced form DPPHH. The assay consists of preparing solutions of increasing concentration of each compound starting from a stock solution (2–3 × 10^−4 M), adding to them 2.5 mL DPPH (0.002% in MeOH, 50–100 µM) and the necessary volume of MeOH to reach the final volume 3.5 mL for each sample. The control sample was made up of DPPH and MeOH. Solutions were protected from light at r.t. for 30 min and then absorbance was measured at 517 nm with a Perkin Elmer Lambda 35 UV–Vis spectrophotometer, using methanolic solution as the blank in the other cell. All the studied compounds have good solubility in MeOH, so their solutions could be prepared. The assay was repeated three times for all compounds and the antioxidant activity, expressed as EC50, was calculated by Equation (1). %AA = ((ADPPH − Asample)/ADPPH) × 100,(1)

Aβ1–42 peptide [3] = target: T1, Aβ1–42 peptide (Homo sapiens, UniProt P05067); assay: Inhibition of Cu^2+-induced Aβ1–42 aggregation, Thioflavin T fluorescence assay; assay type: biochemical; set-up: Amyloid-β peptide (1–42) was purchased from GeneCust; purchased GeneCust; conditions: compounds 80 μM, with copper 40 μM; ThT fluorescence; mean of two independent measurements in duplicate; read-out: Inhibition of Aβ1–42 Aggregation (%) Cu-Induced Aβ Aggr.
T1 sequence (P05067 672-713): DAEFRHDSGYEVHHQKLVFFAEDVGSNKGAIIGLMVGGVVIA
Protocol: (§1) The studied compounds (1a–e) were tested in vitro to evaluate their activity as inhibitors of Aβ1-42 peptide aggregation, through the Thioflavin T (ThT) fluorescence assay. This method is based on the strong ability of the dye ThT to bind β-amyloid fibrils and oligomers through ionic and hydrophobic interactions, while its interaction with β-amyloid monomers is extremely weak. The intercalation of compounds in the β-sheet structure of amyloid protein may prevent fibrils aggregation and ThT binding, and it is evaluated by fluorimetry. The fluorescence emission measurements were performed after overnight incubation of the self-mediated or Cu^2+-induced Aβ fibril aggregates with the studied compounds.
(§2) The inhibition of β-amyloid (Aβ) aggregation was studied through the Th-T fluorescence assay, which was performed using a Varian Cary Eclipse fluorimeter at the following wavelengths: excitation (446 nm) and emission (485 nm). Amyloid-β peptide (1–42) was purchased from GeneCust as lyophilized powder stored at −20 °C.
(§3) The method used is based on thioflavin T (ThT) fluorescence emission, which depends on the interaction of this dye with Aβ fibrils. The assay is performed with the Aβ1–42 peptide sample, which was previously prepared by solubilization of its lyophilized powder in 1,1,1,3,3,3–hexafluoro-2-propanol (HFIP), an organic solvent useful to solubilize and monomerize the β-sheets protein aggregates. After 24 h, the solution was divided into Eppendorf tubes kept in ice, and then, HFIP was left to evaporate overnight (T = 25 °C). The resultant films were stored in the freezer. […] Compounds were dissolved in MeOH (1 mg/mL) and diluted with phosphate buffer to reach a ligand stock solution of 480 μM. Two different types of experiments were prepared in a final volume of 60 μL: control ligand assays (Aβ1–42 aggregation in the absence of inhibitor) and ligand assays (effect of ligand on Aβ1–42 aggregation). For each experiment, a blank sample without Aβ1–42 was used to monitor the effect of the compounds in fluorescence. To study the inhibition of aggregation in the presence of Cu^2+, which is known to promote it, an intermediate stock solution of CuCl2 in phosphate buffer (240 µM) was prepared. Then, it was aliquoted to obtain a final concentration of 40 µM in the samples. All samples were incubated in a water bath for 24 h at 37 °C. Then, 180 µL of ThT (5 µM) in glycine-NaOH buffer (50 mM, pH = 8.5) is added to each solution and 200 µL of it is placed in a 96-well plate (BD Falcon) to be read with the fluorimeter. After 5 min of incubation with ThT, fluorescence was measured at 446 nm (ʎ excitation) and 485 nm (ʎ emission).

Aβ1–42 peptide [4] = target: T1, Aβ1–42 peptide; assay: Inhibition of self-mediated Aβ1–42 aggregation, Thioflavin T fluorescence assay; assay type: biochemical; set-up: Amyloid-β peptide (1–42) was purchased from GeneCust; purchased GeneCust; conditions: read-out: Inhibition of Aβ1–42 Aggregation (%) Self-Aβ Aggr.
Protocol: as §1, §2, §3

[5] = Cu^2+ complexation, potentiometric / spectrophotometric titration; assay type: physicochemical
Excerpt: (§4) The chelating ability of FA and of selected compounds 1a and 1d was studied by using the same experimental techniques (potentiometry, UV–Vis spectrophotometry) and experimental medium used for the titration of the ligand alone (20% w/w DMSO/water).
(§5) Alterations in the deprotonation profiles of the ligand titration curves due to the presence of the metal ions are evident in Figure 2, since the curves for the M/L systems appear well below that of FA for a > −1 (M = Fe) or a > 0 (M = Cu). This evidence supports the formation of metal complexes with the deprotonated (L^−) and mono-protonated (HL) forms of the ligand, whose stability order (Fe > Cu) follows the expected trend. Equilibrium models obtained from the fitting analysis of the potentiometric curves (M = Fe, Cu) and the UV–Vis spectral data (M = Fe, Cu) are reported in Table 2.
(§6) Both compounds 1a and 1d have similar chelating capacities towards iron and copper, which are also analogous to those of FA.
(§7) As concerns the metal chelation studies, potassium hydrogen phthalate (C8H5KO4, p.a.) was acquired from BDH, whereas dimethylsulfoxide (DMSO, dried, p.a.) and potassium chloride (KCl, p.a.) were supplied by Sigma-Aldrich. Aqueous solutions of metal ions were prepared starting from 1000 ppm standards (Titrisol, Sigma-Aldrich), to obtain solutions FeCl3 0.018 M and CuCl2 0.015 M. The metal content of solutions was evaluated by atomic absorption. Iron stock solution was prepared with an excess of acid chloride to avoid hydrolysis and its concentration in HCl was determined by the usual standard-addition method using 0.1M HCl (Titrisol). The 0.1M HCl solution, used in calibration of the glass electrode and in spectrophotometric titrations, was prepared from a Titrisol ampoule. The titrant was prepared from carbonate free commercial concentrate (Titrisol, KOH 0.1 M ampoules). The KOH solution was standardized by titration with a solution of potassium hydrogen phthalate using Gran’s method and it was rejected when the percentage of carbonate was greater than 0.5% of the total amount of base. The potentiometric studies were performed with an automated potentiometric apparatus controlled by PASAT program and containing a Crison micropH 2002 millivoltmeter, a Crison microBu 2031 burette and a Haake thermostatic bath (T = 25.0 ± 0.1 °C). The spectrophotometric titrations were carried out with a Perkin-Elmer Lambda 35 spectrophotometer.
(§8) Both glass and Ag/AgCl reference electrodes were previously conditioned in different DMSO/H2O mixtures of increasing DMSO % concentration and the response of the glass electrode was evaluated by strong acid–strong base (HCl/KOH) calibrations with the determination of the Nernst parameters by Gran’s method. […] The spectrophotometric measurements were carried out in a 250–450 nm wavelength range at pH ca. 2.5–11.8. Under the stated experimental conditions, the pKw value (14.27) was determined and subsequently used in the computations. The stepwise protonation constants of the ligands, Ki = [HiL]/[Hi-1L][H], and the overall metal complex stability constants, β (MmHhLl) = [MmHhLl]/[M]^m[H]^h[L]^l, were calculated by fitting the pH-potentiometric and spectrophotometric data with, respectively, the Hyperquad 2008 [41] and Psequad programs. The metal hydrolysis model was determined under the defined experimental conditions (I = 0.1 M KCl, 20% w/w DMSO/H2O, T = 25.0 ± 0.1 °C) and the following values of stability constants were included in the fitting of experimental data towards the equilibrium models related to the Fe^3+/L and Cu^2+/L systems: log β (FeH-2) = −6.78, log β (FeH-3) = −10.78; log β (Cu2H-2) = −9.94. The species distribution curves were obtained with the Hyss program.

[6] = Fe^3+ complexation, potentiometric / spectrophotometric titration; assay type: physicochemical
Excerpt: as §4, §5, §6, §7, §8

[7] = set-up: method as in doi:10.1039/C7NJ00661F, doi:10.1016/j.tca.2004.06.016, doi:10.1021/je101075q; conditions: aqueous medium and/or different ionic strength; cited from earlier work
Aβ1–42 peptide [8] = target: T1, Aβ1–42 peptide; conditions: cited from earlier work
[9] = compounds 80 μM, without copper, ThT fluorescence, mean of two independent measurements in duplicate
[10] = T = 25.0 ± 0.1 °C, I = 0.1 M KCl, 20% w/w DMSO/water, pH-potentiometric (FA), UV–Vis (1a, 1d)
[11] = T = 25.0 ± 0.1 °C, I = 0.1 M KCl, 20% w/w DMSO/water, pH-potentiometric data
[12] = pH 7.4, CL/CM = 10, CM = 10^−6 M

Compound: O=C1O[C@H]([C@@H](O)CO)C(O)=C1O [Ascorbic acid]
- EC50 [1]: 25 ± 1 µM

- EC50 [2]: 40 ± 2 µM
- melting point: 63 to 65 °C
- inhibition at 80 µM (Aβ1–42 peptide [3]): 69.5%
- inhibition at 80 µM (Aβ1–42 peptide [4]; [9]): 52.8%
Compound: COc1cccc(CONC(=O)/C=C/c2ccc(O)c(OC)c2)c1 [Compound 1b, (E)-3-(4-hydroxy-3-methoxyphenyl)-N-((3-methoxybenzyl)oxy)acrylamide]

- EC50 [2]: 34 ± 1 µM
- melting point: 76 to 77 °C
- inhibition at 80 µM (Aβ1–42 peptide [3]): 68.8%
- inhibition at 80 µM (Aβ1–42 peptide [4]; [9]): 51%
Compound: COc1cc(/C=C/C(=O)NOCc2ccccc2C(F)(F)F)ccc1O [Compound 1c, (E)-3-(4-hydroxy-3-methoxyphenyl)-N-((2-(trifluoromethyl)benzyl)oxy)acrylamide]

- EC50 [2]: 32 ± 3 µM
- melting point: 164.3 to 166.5 °C
- inhibition at 80 µM (Aβ1–42 peptide [3]): 77%
- inhibition at 80 µM (Aβ1–42 peptide [4]; [9]): 28.3%
Compound: COc1cc(/C=C/C(=O)NOCc2ccc(Cl)cc2Cl)ccc1O [Compound 1e, (E)-N-((2,4-dichlorobenzyl)oxy)-3-(4-hydroxy-3-methoxyphenyl)acrylamide]

- log β (CumHhLl), species (1–12) [5, 10]: 1.90(8)
- log β (CumHhLl), species (101) [5, 10]: 6.52(8)
- log β (CumHhLl), species (102) ([5]; T = 25.0 ± 0.1 °C, I = 0.1 M KCl, 20% w/w DMSO/water, pH-potentiometric (FA), UV–Vis (1d)): 11.14(6)
- log β (CumHhLl), species (111) [5, 11]: 13.30(4)
- pM (Cu^2+), pM = −log [M] [5, 12]: 6.2
- log β (FemHhLl), species (1–22) ([6]; T = 25.0 ± 0.1 °C, I = 0.1 M KCl, 20% w/w DMSO/water): 7.81(8)
- log β (FemHhLl), species (101) [6, 10]: 12.15(6)
- log β (FemHhLl), species (102) [6, 10]: 20.31(6)
- log β (FemHhLl), species (103) [6, 11]: 26.70(8)
- pM (Fe^3+), pM = −log [M] [6, 12]: 17.4
- free iron in the Fe^3+/L system ([6]; pH ca. 2, species distribution): ca. 90%
- EC50 [2]: 36 ± 2 µM
Compound: COc1cc(/C=C/C(=O)O)ccc1O [FA, (E)-4-hydroxy-3-methoxy cinnamic acid, reference compound]
- log K1 previously reported [7]: 8.77–8.94
- log K2 previously reported [7]: 4.46–4.56

Compound: Nc1c2c(nc3ccccc13)CCCC2 [Tacrine, reference compound]
- Inhibition of Aβ1–42 Aggregation (%) Self-Aβ Aggr. (Aβ1–42 peptide [8]): 22.8%
- inhibition at 80 µM (Aβ1–42 peptide [4]): 21.5%
